Measured values: patent US11129840B2, “Methods for identifying novel dosing regimens” (Zavante Therapeutics, Inc., priority 2017, dated 2021)
≈ marks a conversion by molar mass, not a printed value. Where two headings read alike, the source gives them in different places. Marks after values point to notes of the source that are not given here.

Legend:
KPN = assay: Thigh infection, static dose and PD targets; format: in vivo, mice
Procedure: (§1) 5 EC (4 ESBL), 3 KPN (2 CR), and 2 PSA were used. MICs were determined by agar dilution. […] PK/PD index determination was performed using a dose fractionation (DF) study design. […] The dose-response data was analyzed using the Emax Hill equation.

PSA = assay: Thigh infection, static dose and PD targets; format: in vivo, mice
Procedure: as §1

EC = assay: Thigh infection, static dose and PD targets; format: in vivo, mice
Procedure: as §1

[1] = Phase I single dose pharmacokinetics in healthy adult subjects; format: in vivo, human; conditions: for half-life / CL renal / Vd / AUC(0-inf) / Cmax / Tmax: plasma
Procedure: Materials/methods: Phase I, open-label study evaluating IV (ZTI-01) and PO (Monurol®) FOS in healthy adult subjects. […] Blood and urine samples were collected serially before and through 48 hours post-dose and analyzed via LC/MS-MS. Noncompartmental analyses were performed via WinNonlin. Safety was monitored throughout the course of the study.

[2] = test system: ESBL-producing K. pneumoniae isolate; assay: Time-kill kinetic analysis; format: cell-based, Klebsiella pneumoniae; conditions: FOS 1, 2, 4×MIC, 4 h
Procedure: Broth microdilution for FOS (Mueller-Hinton broth supplemented with 25 μg/mL glucose-6-phosphate) and comparators was performed before performing TKK. TKK employed MIC multiples for FOS, and ¼ and 1×MIC of select comparators, and combinations of FOS and comparator. TKK were sampled for colony counts at T0, T2, T4, T8 and T24 hours (h). Two Klebsiella pneumoniae isolates (one KPC and one ESBL), two Pseudomonas aeruginosa isolates (non-MDR), and one Acinetobacter baumannii isolate (MDR) were tested.

[3] = test system: methicillin-resistant Staphylococcus aureus (MRSA); assay: Reference agar dilution MIC, resistant SENTRY isolates; format: cell-based
Procedure: (§2) Utilizing existing interpretative criteria for the marketed oral agent (dosed at 3 g) for analysis purposes, FOS susceptibility (S) was determined for recent resistant GN and GP clinical isolates including vancomycin-resistant Enterococcus faecium (VREM) and E. faecalis (VREF); methicillin-resistant Staphylococcus aureus (MRSA) and MR coagulase negative staphylococci (MR-CoNS), Escherichia coli (EC) and Klebsiella pneumoniae (KPN) containing extended spectrum beta-lactamases (ESBL) or were carbapenem resistant (CR); and), Pseudomonas aeruginosa (PSA) non-susceptible to ceftazidime (CAZ-NS) or to meropenem (MER-NS). […] Isolates were collected from hospitalized patients in the US as a part of the SENTRY surveillance program, 2013-2015.

[4] = test system: vancomycin-resistant Enterococcus faecium (VREM); assay: as above; format: cell-based
Procedure: as §2

[5] = test system: EC with an ESBL phenotype; assay: as above; format: cell-based; conditions: Escherichia coli
Procedure: as §2

[6] = test system: MR coagulase negative staphylococci (MR-CoNS); assay: as above; format: cell-based
Procedure: as §2

MER-NS PSA = assay: as above; format: cell-based, Pseudomonas aeruginosa
Procedure: as §2

CAZ-NS PSA = assay: as above; format: cell-based, Pseudomonas aeruginosa
Procedure: as §2

[7] = test system: K. pneumoniae (KPC-producer) isolate; assay: Time-kill kinetic analysis; format: cell-based, Klebsiella pneumoniae
Procedure: TKK were sampled for colony counts at T0, T2, T4, T8 and T24 hours (h). Two Klebsiella pneumoniae isolates (one KPC and one ESBL), two Pseudomonas aeruginosa isolates (non-MDR), and one Acinetobacter baumannii isolate (MDR) were tested.

Enterobacteriaceae [8] = assay: Neutropenic murine-thigh infection model, AUC:MIC ratio targets; format: in vivo
Enterobacteriaceae [9] = assay: MIC distribution for 1,091 Enterobacteriaceae isolates from USA; format: cell-based
[10] = test system: 5 EC (4 ESBL), 3 KPN (2 CR), and 2 PSA; assay: MIC by agar dilution, isolates of the thigh infection study; format: cell-based; conditions: 10 isolates
Procedure: as §1

CR-KPN = assay: Reference agar dilution MIC, resistant SENTRY isolates; format: cell-based, Klebsiella pneumoniae
Procedure: (§3) Utilizing existing interpretative criteria for the marketed oral agent (dosed at 3 g) for analysis purposes, FOS susceptibility (S) was determined for recent resistant GN and GP clinical isolates including vancomycin-resistant Enterococcus faecium (VREM) and E. faecalis (VREF); methicillin-resistant Staphylococcus aureus (MRSA) and MR coagulase negative staphylococci (MR-CoNS), Escherichia coli (EC) and Klebsiella pneumoniae (KPN) containing extended spectrum beta-lactamases (ESBL) or were carbapenem resistant (CR); and), Pseudomonas aeruginosa (PSA) non-susceptible to ceftazidime (CAZ-NS) or to meropenem (MER-NS).

KPN with ESBL phenotype = assay: as above; format: cell-based, Klebsiella pneumoniae
Procedure: as §3

[11] = human, in vivo, 3 g PO (Monurol), mean ± SD
[12] = human, 1 g IV (ZTI-01), mean ± SD
[13] = human, 3 g PO (Monurol), mean ± SD
[14] = human, 8 g IV (ZTI-01), mean ± SD
[15] = Klebsiella pneumoniae, 17 CR-KPN

C[C@@H]1O[C@@H]1P(=O)(O)O [FOS, fosfomycin]
Static Dose (KPN; mean): 1667 mg/kg/24 h | Stasis AUC/MIC (KPN; median target): 11.1* | Stasis T > MIC (KPN; median target): 26.5* % | Static Dose (PSA; mean): 1920 mg/kg/24 h | Stasis AUC/MIC (PSA; mouse, in vivo): 15 | Stasis T > MIC (PSA; mouse, in vivo): 29% | Static Dose (EC; mean): 847 mg/kg/24 h | Stasis AUC/MIC (EC; median target): 19.3* | Stasis T > MIC (EC; median target): 37.7* % | fraction of the dose excreted in urine after 48 hours ([1]; 1 g IV): 74% | CLT ([1]; 1 g IV (ZTI-01), mean ± SD): 8.7 ± 1.7 L/h | fraction of the dose excreted in urine after 48 hours ([1]; 3 g PO): 37% | CLT/F ([1]; 3 g PO (Monurol), mean ± SD): 17.0 ± 4.7 L/h | fraction of the dose excreted in urine after 48 hours ([1]; 8 g IV): 80% | CLT ([1]; 8 g IV (ZTI-01), mean ± SD): 7.8 ± 1.4 L/h | dose dependence of plasma PK ([1]; between the 1 g and 8 g IV doses): approximately linear and proportional | half-life ([1]; human, in vivo, 1 g IV (ZTI-01), mean ± SD): 2.4 ± 0.4 h | Vd/F [1, 11]: 204 ± 70.7 L | half-life [1, 11]: 9.04 ± 4.5 h | half-life ([1]; human, in vivo, 8 g IV (ZTI-01), mean ± SD): 2.8 ± 0.6 h | CL renal [1, 12]: 110 mL/min | Vd [1, 12]: 29.7 ± 5.7 L | CL renal [1, 13]: 108 mL/min | CL renal [1, 14]: 105 mL/min | Vd [1, 14]: 31.5 ± 10.4 L | AUC(0-inf) [1, 12]: 120 ± 28.5 µg·h/mL | Cmax [1, 12]: 44300 ± 7600 ng/mL | Tmax [1, 12]: 1.1 ± 0.05 h | AUC(0-inf) [1, 13]: 191 ± 57.6 µg·h/mL | Cmax [1, 13]: 26800 ± 6400 ng/mL | Tmax [1, 13]: 2.25 ± 0.4 h | AUC(0-inf) [1, 14]: 1060 ± 192 µg·h/mL | Cmax [1, 14]: 370000 ± 61900 ng/mL | Tmax [1, 14]: 1.08 ± 0.01 h | decrease in CFU [2]: 1.4-2.2 log10 CFU | MIC50 ([3]; 101 MRSA): 4 µg/mL (≈ 29 µM) | MIC90 ([3]; 101 MRSA): 8 µg/mL (≈ 57.9 µM) | MIC ([3]; all 101 MRSA): ≤ 64 µg/mL | MIC90 ([4]; Enterococcus faecium): 128 µg/mL (≈ 927 µM) | MIC50 ([4]; Enterococcus faecium, 81 VREM): 64 µg/mL (≈ 464 µM) | No. of isolates with an MIC 64 μg/mL ([4]; of 81 VREM): 63 | MIC [5]: > 256 µg/mL | MIC50 ([5]; 49 EC): 0.5 µg/mL (≈ 3.62 µM) | MIC90 ([5]; 49 EC): 4 µg/mL (≈ 29 µM) | MIC ([5]; remaining isolates, read-out: MIC values): ≤ 32 µg/mL | MIC ([6]; Staphylococcus capitis): 128 µg/mL (≈ 927 µM) | MIC ([6]; Staphylococcus hominis): > 256 µg/mL | No. of isolates with FOS MIC≤64 μg/mL ([6]; of 153 MR-CoNS): 72 | MIC (MER-NS PSA; Pseudomonas aeruginosa): > 256 µg/mL | MIC90 (MER-NS PSA; Pseudomonas aeruginosa): 128 µg/mL (≈ 927 µM) | MIC50 (MER-NS PSA; Pseudomonas aeruginosa, 42 MER-NS PSA): 64 µg/mL (≈ 464 µM) | No. of isolates with FOS MIC≤64 μg/mL (MER-NS PSA; of 42 MER-NS PSA): 34 | MIC (CAZ-NS PSA; Pseudomonas aeruginosa): > 256 µg/mL | MIC90 (CAZ-NS PSA; Pseudomonas aeruginosa): 128 µg/mL (≈ 927 µM) | MIC50 (CAZ-NS PSA; Pseudomonas aeruginosa, 38 CAZ-NS PSA): 64 µg/mL (≈ 464 µM) | No. of isolates with FOS MIC≤64 μg/mL (CAZ-NS PSA; of 38 CAZ-NS PSA): 32 | increase in bacterial growth ([7]; FOS 0.5, 1 and 2×MIC, by 24 h): approximately 2 log10 | log10 reduction in bacterial growth (CFU) ([7]; FOS 2×MIC, by 4 h): > 3 log10 | killing activity ([7]; FOS alone): bactericidal | median total-drug plasma AUC:MIC ratio target (Enterobacteriaceae [8]; 1-log10 CFU reduction from baseline at 24 h): 41.6 | median total-drug plasma AUC:MIC ratio target (Enterobacteriaceae [8]; net bacterial stasis at 24 h): 19.1 | MIC90 (Enterobacteriaceae [9]): 16 mgL | MIC range [10]: 1 to 16 µg/mL | MIC50 (CR-KPN; [15]): 8 µg/mL (≈ 57.9 µM) | MIC90 (CR-KPN; [15]): 64 µg/mL (≈ 464 µM) | No. of isolates with FOS MIC≤64 μg/mL (CR-KPN; of 17 CR-KPN): 16 | MIC (CR-KPN; one isolate): > 256 µg/mL | MIC (KPN with ESBL phenotype; Klebsiella pneumoniae): > 256 µg/mL | MIC50 (KPN with ESBL phenotype; Klebsiella pneumoniae, 50 KPN): 4 µg/mL (≈ 29 µM) | MIC90 (KPN with ESBL phenotype; Klebsiella pneumoniae, 50 KPN): 16 µg/mL (≈ 116 µM) | No. of isolates with FOS MIC≤64 μg/mL (KPN with ESBL phenotype; of 50 KPN): 49
